Results reported in US6177542A, “Integrin-binding peptides” (The Burnham Institute, priority 1997, dated 2001).
Positions of bridges follow the written chain, without caps; N, C: chain ends. Residues, ends and D or L forms follow the SMILES beside them. No end group written: not given here.

What was measured:
[1] = target: T1, α5β1 integrin (Homo sapiens, UniProt P05556+P08648); experiment: phage attachment assay: inhibition of CRGDCL-phage binding to α5β1 integrin; conditions: FIG. 1
T1 construct: The α5β1 and αvβ3 integrins were isolated from human placenta; from tissue; host or cells: human placenta
Experimental: (§1) The α5β1 and αvβ3 integrins were isolated from human placenta as described in Pytela et al., PNAS USA.
CRGDCL-displaying phage were incubated for 1 hour in the presence of various concentrations of the peptides to be tested in microtiter wells coated with the α5β1 integrin. […] Specific binding was quantitated by added K9lkan bacteria directly to the wells and growing the bacteria overnight at room temperature in the presence of tetracycline as described in Smith and Scott, Meth. Enzymol. […] The data represent means from duplicate wells.

[2] = target: T1, α5β1 integrin; experiment: inhibition of ELRGDGW-containing phage binding to α5β1 integrin; conditions: 1 hour at room temperature
Experimental: Phage carrying the insert ELRGDGW (SEQ ID NO 24) were added together with various concentrations of the cyclic peptide […] (SEQ ID NO:03) into microliter wells coated with the α5β1 integrin and incubated for 1 hour at room temperature. The 15 phage which remained bound to the wells were quantitated by growing the K9lkan bacteria in the wells overnight at room temperature in the presence of tetracycline. The absorbance that indicates the growth of bacteria infected with phage was measured at 600 nm with an ELISA reader.

[3] = target: T2, αvβ3 integrin (Homo sapiens, UniProt P05106+P06756); experiment: inhibition of CRGDCL-phage binding to αvβ3; conditions: means from duplicate wells
T2 construct: The α5β1 and αvβ3 integrins were isolated from human placenta; from tissue; host or cells: human placenta
From the text: as §1
(§2) Selected peptides were studied for their ability to bind to the αvβ3 integrin by using integrin bound on anti-αv or anti-β3 antibody coating. Microliter wells were coated with β3 antibodies to bind specifically the αvβ3 integrin. […] The bound phage were eluted with low pH buffer and quantitated by infection of bacteria as described above. The IC50 values are means from duplicate wells. ND means not determined.

[4] = target: T3, α5β1 (UniProt G3HZ55+P08648); experiment: cell attachment assay: α5-transfected CHO cells B2/α27 to fibronectin; assay type: cell-based; conditions: FIG. 4A, read-out: IC50, inhibition of α5β1-mediated cell attachment to fibronectin
T3 construct: expressed in transfected cells; host or cells: CHO B2/α27 clone
From the text: (§3) CHO cell lines expressing α5β1 (the B2/α27 clone, as described in Bauer et al., J. Cell. Biol. 116:477-487 (1992)), or CHO cell lines expressing αvβ1 (B2/v7 clone, described in Zhang et al., J. Cell. Biol. 122:235-242 (1993)) were used in these assays. Cell lines expressing fibronectin-binding integrins were used to determine peptide activities against these integrins in the cell attachment assay described in Ruoslahti et al. Methods Enzymol. 144:803-831 […]. The vitronectin-binding integrins αvβ5 and αvβ3 were assayed using the cell lines HT29 and IMR90, respectively, which were described in Koivunen et al. J. Biol. Chem. 268:205-210 (1993).
(§4) Human plasma fibronectin and vitronectin were iodinated as described in Morla and Ruoslahti, J. Cell Biol. 118:421-429 (1992), which is incorporated herein by reference. […] The input ell number was approximately 2×10^4 and attachment was quantitated by staining with 0.1% amido black.
(§5) Selected peptides were tested for inhibitory activity in cell attachment assays. The assays are described in detail in the Example above. The cells used in the various experiments were: (A) α5 -transfected CHO cells B2/α27 (α5β1); αv -transfectedCHO cells 32/v7 (αvβ1); (C) HT29 cells (αvβ5); (D) IMR90 cells (αvβ3). […]

[5] = target: T2, αvβ3 integrin; experiment: inhibition of NGRAHA-phage binding to αvβ3; conditions: means from duplicate wells
From the text: as §1, §2

[6] = tested on: α5β1 and αvβ3 integrins; experiment: competitive binding assays for relative binding affinities of peptide motifs; set-up: species or system human; conditions: for relative binding affinity class (in words): competitive binding assays
[7] = target: T1, α5β1 integrin; experiment: fibronectin binding assay: inhibition of 125I-labeled fibronectin binding to immobilized α5β1; conditions: FIG. 2, FIG. 3
Experimental: Microtiter wells were coated with anti-α5 specific antibody by incubating overnight at an antibody concentration of 10 μg/ml, followed by BSA. α5β1 integrin then was bound to α5specific antibody-coated wells by incubating 300 μl of a placental extract per well in TBS buffer containing 0.1 M octylglucoside, 1 mM CaCl2, 1 mM MnCl2 and proteinase inhibitors overnight at 4° C. according to Pytela et al., Methods Enzymol 144: 475-489 (1987), which is herein incorporated by reference. Alternatively, the α5β1 integrin was directly coated on plastic as described above. The wells were extensively washed with TBS containing 0.1% NP-40™. ^125 I-labeled fibronectin (100,000 cpm per well) was incubated in the presence of competing peptides for 1 hour at 25° C. in 100 μl volume of TBS containing 0.1% NP-40™ detergent and 1 mM MnCl 2. After repeated washing, the radioactivity remaining bound was quantitated with a gamma counter.
Next, three of these four peptides were compared for efficiencies in inhibiting binding of ^125 I-labeled fibronectin to immobilized α5β1, according to the fibronectin binding assay described in the Example above. Anti-α5 antibodies were used to tether α5β1 onto microliter wells. ^125 I-labeled fibronectin was incubated in the coated wells in the presence of competing peptides for 1 hour. After washing, the radioactivity that remained bound was determined. The data represent means from duplicate wells.

[8] = target: T2, αvβ3 integrin; experiment: binding of peptides to αvβ3 integrin bound on anti-αv or anti-β3 antibody coating
From the text: Selected peptides were studied for their ability to bind to the αvβ3 integrin by using integrin bound on anti-αv or anti-β3 antibody coating. Microliter wells were coated with β3 antibodies to bind specifically the αvβ3 integrin. The input of CRGDCL (SEQ ID NO:01)-containing phage and NGRAHA (SEQ ID NO:04)-containing phage were 2×10^12 and 5×10^12 TU per well, respectively. The bound phage were eluted with low pH buffer and quantitated by infection of bacteria as described above. The IC50 values are means from duplicate wells. ND means not determined.

[9] = target: T4, αvβ5 (Homo sapiens, UniProt P06756+P18084); experiment: cell attachment assay: HT29 cells to vitronectin; assay type: cell-based
T4 construct: endogenous in cells; host or cells: HT29
From the text: as §3, §4, §5

T1 sequence (P08648 42-894 limits assumed): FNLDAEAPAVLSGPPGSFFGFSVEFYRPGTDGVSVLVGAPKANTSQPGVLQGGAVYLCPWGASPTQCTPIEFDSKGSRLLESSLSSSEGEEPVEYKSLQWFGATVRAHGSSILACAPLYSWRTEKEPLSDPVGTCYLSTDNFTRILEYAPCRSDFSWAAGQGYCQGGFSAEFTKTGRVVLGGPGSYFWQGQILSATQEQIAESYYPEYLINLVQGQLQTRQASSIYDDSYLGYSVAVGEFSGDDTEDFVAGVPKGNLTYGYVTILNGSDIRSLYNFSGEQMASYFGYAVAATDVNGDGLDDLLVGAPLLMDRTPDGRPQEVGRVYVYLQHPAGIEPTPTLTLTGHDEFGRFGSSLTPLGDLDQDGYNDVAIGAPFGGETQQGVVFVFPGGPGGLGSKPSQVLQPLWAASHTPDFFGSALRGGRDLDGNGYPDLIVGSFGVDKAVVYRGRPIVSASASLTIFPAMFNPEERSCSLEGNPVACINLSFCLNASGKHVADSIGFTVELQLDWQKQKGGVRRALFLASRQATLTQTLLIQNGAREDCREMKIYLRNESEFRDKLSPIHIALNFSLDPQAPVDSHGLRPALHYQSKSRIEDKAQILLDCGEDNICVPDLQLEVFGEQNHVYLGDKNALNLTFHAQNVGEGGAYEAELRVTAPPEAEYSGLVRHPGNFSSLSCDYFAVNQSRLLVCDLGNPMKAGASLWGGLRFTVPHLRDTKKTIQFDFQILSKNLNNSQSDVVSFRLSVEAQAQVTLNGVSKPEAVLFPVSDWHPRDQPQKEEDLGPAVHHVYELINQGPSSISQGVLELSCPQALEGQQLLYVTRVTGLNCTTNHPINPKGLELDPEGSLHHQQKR
T1 sequence (P08648 895-1049 limits assumed): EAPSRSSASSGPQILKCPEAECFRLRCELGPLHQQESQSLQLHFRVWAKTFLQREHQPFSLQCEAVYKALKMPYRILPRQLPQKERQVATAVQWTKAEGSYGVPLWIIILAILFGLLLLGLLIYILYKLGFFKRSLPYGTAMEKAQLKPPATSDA
T1 sequence (P05556 21-798): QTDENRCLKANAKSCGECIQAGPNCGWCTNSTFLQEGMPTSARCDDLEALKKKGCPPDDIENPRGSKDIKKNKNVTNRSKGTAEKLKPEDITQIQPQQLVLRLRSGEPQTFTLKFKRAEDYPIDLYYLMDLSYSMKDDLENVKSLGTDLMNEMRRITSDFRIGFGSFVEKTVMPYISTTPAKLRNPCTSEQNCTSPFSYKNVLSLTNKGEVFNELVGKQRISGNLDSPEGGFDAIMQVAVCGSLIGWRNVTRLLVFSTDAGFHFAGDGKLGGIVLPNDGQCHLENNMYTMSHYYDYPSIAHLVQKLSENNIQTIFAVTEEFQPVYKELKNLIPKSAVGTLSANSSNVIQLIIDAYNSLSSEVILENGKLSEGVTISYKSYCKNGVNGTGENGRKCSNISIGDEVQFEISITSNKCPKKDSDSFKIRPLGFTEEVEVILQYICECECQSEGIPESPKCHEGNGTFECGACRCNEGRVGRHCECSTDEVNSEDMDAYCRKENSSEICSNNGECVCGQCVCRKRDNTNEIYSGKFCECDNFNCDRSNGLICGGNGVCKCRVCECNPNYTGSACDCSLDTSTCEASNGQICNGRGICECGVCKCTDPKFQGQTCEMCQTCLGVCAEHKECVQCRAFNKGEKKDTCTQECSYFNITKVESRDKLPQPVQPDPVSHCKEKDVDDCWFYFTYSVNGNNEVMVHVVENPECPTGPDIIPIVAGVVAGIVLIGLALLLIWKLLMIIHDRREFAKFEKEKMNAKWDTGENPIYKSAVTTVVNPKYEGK
T2 sequence (P06756 31-889 limits assumed): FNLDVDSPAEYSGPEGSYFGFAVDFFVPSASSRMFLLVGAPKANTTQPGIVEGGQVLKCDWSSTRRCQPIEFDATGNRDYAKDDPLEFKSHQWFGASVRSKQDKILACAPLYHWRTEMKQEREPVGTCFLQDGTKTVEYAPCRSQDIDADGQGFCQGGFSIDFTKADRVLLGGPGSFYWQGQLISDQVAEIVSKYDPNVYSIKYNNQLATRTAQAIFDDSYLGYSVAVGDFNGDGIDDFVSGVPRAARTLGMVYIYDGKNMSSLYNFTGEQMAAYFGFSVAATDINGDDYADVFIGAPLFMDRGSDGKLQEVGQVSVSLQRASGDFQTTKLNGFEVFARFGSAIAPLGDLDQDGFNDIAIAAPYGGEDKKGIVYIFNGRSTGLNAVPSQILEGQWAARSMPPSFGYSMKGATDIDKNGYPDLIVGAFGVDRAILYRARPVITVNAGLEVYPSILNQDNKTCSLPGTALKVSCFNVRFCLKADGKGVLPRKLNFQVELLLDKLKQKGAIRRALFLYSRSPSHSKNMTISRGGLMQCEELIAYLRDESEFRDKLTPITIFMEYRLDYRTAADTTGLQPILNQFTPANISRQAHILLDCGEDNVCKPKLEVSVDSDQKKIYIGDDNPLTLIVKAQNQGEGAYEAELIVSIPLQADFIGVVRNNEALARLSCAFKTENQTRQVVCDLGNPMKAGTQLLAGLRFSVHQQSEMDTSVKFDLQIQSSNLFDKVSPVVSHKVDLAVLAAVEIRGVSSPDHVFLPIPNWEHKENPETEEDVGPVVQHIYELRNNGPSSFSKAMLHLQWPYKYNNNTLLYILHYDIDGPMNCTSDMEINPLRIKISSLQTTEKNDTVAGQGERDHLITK
T2 sequence (P06756 891-1048 limits assumed): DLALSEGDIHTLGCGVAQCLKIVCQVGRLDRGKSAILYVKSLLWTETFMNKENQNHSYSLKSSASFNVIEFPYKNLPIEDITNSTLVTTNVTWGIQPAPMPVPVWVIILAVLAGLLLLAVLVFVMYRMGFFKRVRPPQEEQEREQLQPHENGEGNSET
T2 sequence (P05106 27-788): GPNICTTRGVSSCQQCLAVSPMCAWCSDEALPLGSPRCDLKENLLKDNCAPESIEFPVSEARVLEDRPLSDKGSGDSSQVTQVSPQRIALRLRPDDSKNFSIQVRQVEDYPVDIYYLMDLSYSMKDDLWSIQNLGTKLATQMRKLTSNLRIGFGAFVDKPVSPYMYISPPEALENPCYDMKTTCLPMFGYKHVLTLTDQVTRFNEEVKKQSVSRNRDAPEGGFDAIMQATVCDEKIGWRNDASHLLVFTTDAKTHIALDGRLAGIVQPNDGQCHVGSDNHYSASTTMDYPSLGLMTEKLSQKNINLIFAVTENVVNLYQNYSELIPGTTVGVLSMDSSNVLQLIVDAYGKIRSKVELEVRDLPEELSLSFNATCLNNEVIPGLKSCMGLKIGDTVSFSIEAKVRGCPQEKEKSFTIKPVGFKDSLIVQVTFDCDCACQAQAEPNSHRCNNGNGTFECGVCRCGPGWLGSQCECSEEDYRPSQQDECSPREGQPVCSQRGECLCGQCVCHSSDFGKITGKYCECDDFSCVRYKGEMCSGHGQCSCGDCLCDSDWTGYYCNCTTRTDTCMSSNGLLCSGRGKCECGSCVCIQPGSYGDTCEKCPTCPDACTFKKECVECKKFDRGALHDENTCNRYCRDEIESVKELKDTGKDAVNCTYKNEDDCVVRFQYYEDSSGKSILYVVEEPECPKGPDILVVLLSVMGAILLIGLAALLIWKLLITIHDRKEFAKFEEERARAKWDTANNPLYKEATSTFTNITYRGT
T3 sequence (P08648 42-894 limits assumed): as the sequence (P08648 42-894 limits assumed) above
T3 sequence (P08648 895-1049 limits assumed): as the sequence (P08648 895-1049 limits assumed) above
T3 sequence (G3HZ55 21-798): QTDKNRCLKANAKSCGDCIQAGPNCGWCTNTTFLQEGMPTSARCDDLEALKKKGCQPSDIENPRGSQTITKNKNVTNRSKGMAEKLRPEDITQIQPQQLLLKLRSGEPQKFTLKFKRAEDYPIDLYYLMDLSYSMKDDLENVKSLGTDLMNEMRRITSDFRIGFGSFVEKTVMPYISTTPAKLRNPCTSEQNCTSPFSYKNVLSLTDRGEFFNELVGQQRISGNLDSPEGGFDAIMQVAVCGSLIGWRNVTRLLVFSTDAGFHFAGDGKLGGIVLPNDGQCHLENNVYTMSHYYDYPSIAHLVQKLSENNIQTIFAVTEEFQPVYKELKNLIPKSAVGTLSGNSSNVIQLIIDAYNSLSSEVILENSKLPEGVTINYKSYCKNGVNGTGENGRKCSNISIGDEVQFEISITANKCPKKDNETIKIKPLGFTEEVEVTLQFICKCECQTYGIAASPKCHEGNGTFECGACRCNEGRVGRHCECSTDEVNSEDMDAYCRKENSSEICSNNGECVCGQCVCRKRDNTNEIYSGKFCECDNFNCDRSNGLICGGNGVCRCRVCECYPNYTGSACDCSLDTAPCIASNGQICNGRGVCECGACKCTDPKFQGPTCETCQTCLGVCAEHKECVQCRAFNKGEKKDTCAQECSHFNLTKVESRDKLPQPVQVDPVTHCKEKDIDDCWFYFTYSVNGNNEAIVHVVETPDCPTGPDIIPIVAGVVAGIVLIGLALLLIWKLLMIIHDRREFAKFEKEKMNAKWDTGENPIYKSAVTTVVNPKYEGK

| Compound | IC50 [3] [µM] | IC50 [5] [µM] | relative binding affinity class (in words) [6] | activity in inhibiting 125I-fibronectin binding to α5β1 (in words) [7] | further results |
| --- | --- | --- | --- | --- | --- |
| CC(C)C[C@H](NC(=O)[C@@H]1CSSC[C@H](NC(=O)[C@H](C)NC(=O)CN)C(=O)N[C@@H](CCCNC(=N)N)C(=O)NCC(=O)N[C@@H](CC(=O)O)C(=O)N1)C(=O)NCC(=O)N[C@@H](C)C(=O)O [GAC*RGDC*LGA] (H-GACRGDCLGA-OH; disulfide 3-7) | 0.1 |  |  |  | IC50 ([1]; 1 hour, means from duplicate wells, read-out: IC50 (half-maximal inhibitory concentration), inhibition of CRGDCL-phage binding to α5β1): 0.02 µM; IC50 [2]: ~0.5 µM; IC50 [4]: 100 µM |
| N=C(N)NCCC[C@H](NC(=O)CNC(=O)[C@H](CC(=O)O)NC(=O)[C@@H](N)CO)C(=O)O [SDGR, reference compound] (H-SDGR-OH) |  | > 100 |  |  |  |
| CRGDC (disulfide 1-5 (inferred)) [cyclic peptide motif] |  |  | High affinity |  |  |
| CRGDCL (disulfide 1-5 (inferred)) |  |  | High affinity | very effective | binding to αvβ3 (in words) [8]: bound; binding affinity compared with similar linear peptides, as judged by the IC50 value ([6]; both α5β1 and αvβ3 integrins): about 10 times |
| CVLNGRME |  |  | moderate affinities |  |  |
| DGRAHA [DGRAHA] |  | 100 |  |  | IC50 against αvβ5 compared with the standard GRGDSP [9]: equal to the standard GRGDSP |
| GATIRSVDGA | ~100 |  |  |  |  |
| NGRAHA [NGRAHA] | 200 | 30 |  | active | IC50 ([1]; CRGDCL-phage, α5β1, read-out: IC50 in the phage assay (unit inferred)): 30 µM |
| SDGRAHS (SDGRAHA) [DGRAHA with a serine residue included at the amino terminus] |  |  |  | essentially devoid of activity |  |
| SRRGDL [RGD peptide] |  |  |  |  | binding to αvβ3 (in words) [8]: bound |
